Measurements as given in patent US11957671B2, “Benzodioxane modulators of leukotriene A4 hydrolase (LTA4H) for prevention and treatment of aging-associated diseases” (Alkahest, Inc., priority 2021, dated 2024).

Key:
human LTA4 hydrolase = human LTA4 hydrolase (Homo sapiens (Human), UniProt P09960); assay: LTA4H Enzyme assay (cleavage of Arg-AMC); assay type: biochemical; details: LTA4H 1 nM, Arg-AMC 50 μM, room temperature 1 h
Procedure: The compounds of the invention are assessed for the ability to interact with human LTA4 hydrolase in an enzymatic assay that measures the ability of the enzyme to cleave the peptide bond of arginyl-aminomethylcoumarin (Arg-AMC). LTA4H Enzyme (1 nM final), Arg-AMC substrate (50 μM final), and compound are combined in a reaction buffer (50 mM Tris-HCl (pH 7.5), 100 mM KCl, 0.5% bovine serum albumin) at room temperature for 1 h. The formation of product is assessed by measuring the fluorescence of aminomethylcoumarin product (excitation wavelength 380 nm/emission wavelength 460 nm).

[1] = system: synthesis of LTB4 in human whole blood; assay: human whole blood (HWB) assay, LTB4 production inhibition; assay type: cell-based; details: calcimycin 20 μM
Procedure: The compounds of the invention are additionally tested in a human whole blood (HWB) assay to determine their ability to inhibit the synthesis of LTB4 in a cellular system. Compounds are combined with heparinized human whole blood and incubated for 15 minutes at 37° C. Calcimycin (20 μM final, prepared in phosphate-buffered saline, pH 7.4) is then added and the mixture is incubated for another 30 minutes at 37° C. The samples are centrifuged for 5 min at low speed (1500×g) and the plasma layer is removed. Plasma LTB4 concentrations are then measured using an antibody-based homogenous time-resolved fluorescence method (CisBio, Bedford, Mass.). In general, the preferred potency range (IC50) of compounds in the HWB assay is between 10 nM to 10 μM, the more preferred potency range is 10 nM to 1 μM, and the most preferred potency range is 10 nM to 100 nM.

Chain of human LTA4 hydrolase (P09960 whole entry): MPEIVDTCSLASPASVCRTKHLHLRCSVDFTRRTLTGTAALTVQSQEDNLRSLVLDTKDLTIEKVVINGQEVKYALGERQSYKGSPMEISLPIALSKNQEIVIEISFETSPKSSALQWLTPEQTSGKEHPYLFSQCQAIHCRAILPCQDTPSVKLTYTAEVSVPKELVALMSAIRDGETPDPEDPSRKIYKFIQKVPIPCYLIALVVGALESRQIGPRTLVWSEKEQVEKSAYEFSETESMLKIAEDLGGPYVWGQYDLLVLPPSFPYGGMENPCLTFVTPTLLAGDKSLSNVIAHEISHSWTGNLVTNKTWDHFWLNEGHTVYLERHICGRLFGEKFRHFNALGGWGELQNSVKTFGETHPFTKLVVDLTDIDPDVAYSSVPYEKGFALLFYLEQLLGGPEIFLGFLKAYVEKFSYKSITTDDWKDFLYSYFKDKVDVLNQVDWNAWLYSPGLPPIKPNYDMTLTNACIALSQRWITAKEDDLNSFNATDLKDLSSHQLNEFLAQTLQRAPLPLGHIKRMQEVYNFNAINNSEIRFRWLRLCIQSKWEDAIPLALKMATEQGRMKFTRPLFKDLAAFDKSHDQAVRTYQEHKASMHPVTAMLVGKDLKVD

`c1ccc2c(c1)OCC(c1ccc(CN3CCn4cnnc4C3)cc1)O2` (centres unmarked) [Example 16, 7-[4-(2,3-dihydro-1,4-benzodioxin-2-yl)benzyl]-5,6,7,8-tetrahydro[1,2,4,]triazolo[4,3-a]pyrazine] showed an IC50 (human LTA4 hydrolase) of 1.14 nM.

`CC(=O)N1CCC(N(C)Cc2ccc([C@H]3COc4ccccc4O3)cc2)CC1` [Example 14] showed an IC50 (human LTA4 hydrolase) of 2.32 nM and an IC50 [1] of 155 nM.

Compound `CC(C)(O)C(=O)NC1CCN(Cc2ccc([C@H]3COc4ccccc4O3)cc2)CC1` [Example 220, N-(1-{4-[(2S)-2,3-dihydro-1,4-benzodioxin-2-yl]benzyl}piperidin-4-yl)-2-hydroxy-2-methylpropanamide] has an IC50 [1] of 91.3 nM.

Compound `CCN(CC)Cc1ccc([C@H]2COc3cccnc3O2)cc1` [Example 141, N-{4-[(3S)-2,3-dihydro[1,4]dioxino[2,3-b]pyridin-3-yl]benzyl}-N-ethylanamine] has an IC50 [1] of 32.8 nM.

In the case of `CCN(Cc1ccc([C@H]2COc3ccccc3O2)cc1)C1CCCC1` [Example 109, N-{4-[(2S)-2,3-dihydro-1,4-benzodioxin-2-yl]benzyl}-N-ethylcyclopentanamine], the IC50 [1] is reported as 75.5 nM.

With `c1cnc2c(c1)OC[C@H](c1ccc(CNC3CCC3)cc1)O2` [Example 173, N-{4-[(3S)-2,3-dihydro[1,4]dioxino[2,3-b]pyridin-3-yl]benzyl}cyclobutanamine] the IC50 [1] was 72.8 nM.

Compound `CC(=O)NC1CCN(Cc2ccc([C@H]3COc4ccccc4O3)cc2)CC1` [Example 178, N-(1-(4-[(2S)-2,3-dihydro-1,4-benzodioxin-2-yl]benzyl}piperidin-4-yl)acetamide] has an IC50 [1] of 160 nM.

`CN(CCc1ccccn1)Cc1ccc([C@H]2COc3cccnc3O2)cc1` [Example 138, N-{4-[(3S)-2,3-dihydro[1,4]dioxino[2,3-b]pyridin-3-yl]benzyl}-N-methyl-2-(pyridin-2-yl)ethanamine] was tested, and the IC50 [1] was 76 nM.

`O=C(O)C[C@@H]1CCCN(Cc2ccc([C@H]3COc4ccccc4O3)cc2)C1` [Example 183, [(3S)-1-{4-[(2S)-2,3-dihydro-1,4-benzodioxin-2-yl]benzyl)piperidin-3-yl]acetic acid] was tested, and the IC50 [1] was 151 nM.

In the case of `FC1CCN(Cc2ccc([C@H]3COc4cccnc4O3)cc2)CC1` [Example 155, (3S)-3-{4-[(4-fluoropiperidin-1-yl)methyl]phenyl}-2,3-dihydro[1,4]dioxino[2,3-b]pyridine], the IC50 [1] is reported as 95.4 nM.

`O=S1(=O)CCN(Cc2ccc(C3COc4cccnc4O3)cc2)CC1` (centres unmarked) [Example 17, 3-{4-[(1,1-dioxidothiomorpholin-4-yl)methyl]phenyl}-2,3-dihydro[1,4]dioxino[2,3-b]pyridine] gave an IC50 (human LTA4 hydrolase) of 0.73 nM.

Work on `CN(Cc1ccc([C@H]2COc3ccccc3O2)cc1)C(C)(C)C` [Example 81, N-{4-[(2S)-2,3-dihydro-1,4-benzodioxin-2-yl]benzyl}-N,2-dimethylpropan-2-amine] yielded an IC50 [1] of 80.7 nM.

`CS(=O)(=O)NC1CCN(Cc2ccc([C@H]3COc4cccnc4O3)cc2)CC1` [Example 190, N-(1-{4-[(3S)-2,3-dihydro[1,4]dioxino[2,3-b]pyridin-3-yl]benzyl}piperidin-4-yl)methanesulfonamide] was tested, and the IC50 [1] was 26 nM.

`O=C(O)c1ccc(CC2CCN(Cc3ccc([C@H]4COc5cccnc5O4)cc3)CC2)cc1` [Example 234, 4-[(1-{4-[(3S)-2,3-dihydro[1,4]dioxino[2,3-b]pyridin-3-yl]benzyl}piperidin-4-yl)methyl]benzoic acid] was tested, and the IC50 [1] was 94.8 nM.

For `NC(=O)NC1CCN(Cc2ccc([C@H]3COc4ccccc4O3)cc2)CC1` [Example 175, 1-(1-{4-[(2S)-2,3-dihydro-1,4-benzodioxin-2-yl]benzyl}piperidin-4-yl)urea], the IC50 [1] was 72.6 nM.

With `O=C(O)CCCC1CCN(Cc2ccc(C3COc4ccccc4O3)cc2)CC1` (racemic) [Example 26, 4-{1-[4-(2,3-dihydro-1,4-benzodioxin-2-yl)benzyl]piperidin-4-yl}butanoic acid] the IC50 [1] was 308 nM.

`c1cnc2c(c1)OC[C@H](c1ccc(CN3CCOCC3)cc1)O2` [Example 204, (3S)-3-[4-(morpholin-4-ylmethyl)phenyl]-2,3-dihydro[1,4]dioxino[2,3-b]pyridine] was tested, and the IC50 [1] was 95 nM.

With `O=C1CCCN1CC1CCN(Cc2ccc([C@H]3COc4ccccc4O3)cc2)CC1` [Example 99, 1-[(1-{4-[(2S)-2,3-dihydro-1,4-benzodioxin-2-yl]benzyl}piperidin-4-yl)methyl]pyrrolidin-2-one] the IC50 [1] was 95.4 nM.

In the case of `CCN(C)Cc1ccc([C@H]2COc3cccnc3O2)cc1` [Example 140, N-{4-[(3S)-2,3-dihydro[1,4]dioxino[2,3-b]pyridin-3-yl]benzyl}-N-methylethanamine], the IC50 [1] is reported as 33.4 nM.

Compound `c1cnc2c(c1)OCC(c1ccc(CN3CCCC3)cc1)O2` (centres unmarked) [Example 15, 3-[4-(pyrrolidin-1-ylmethyl)phenyl]-2,3-dihydro[1,4]dioxin[2,3-b]pyridine] has an IC50 (human LTA4 hydrolase) of 0.77 nM.

In the case of `O=C1NCCC12CCN(Cc1ccc([C@H]3COc4cccnc4O3)cc1)CC2` [Example 125, 8-{4-[(3S)-2,3-dihydro[1,4]dioxino[2,3-b]pyridin-3-yl]benzyl}-2,8-diazaspiro[4.5]decan-1-one], the IC50 [1] is reported as 39.2 nM.

In the case of `c1ccc2c(c1)OC[C@@H](c1ccc(CN3CCOCC3)cc1)O2` [Example 199, 4-{4-[(2R)-2,3-dihydro-1,4-benzodioxin-2-yl]benzyl}morpholine], the IC50 (human LTA4 hydrolase) is reported as 40.1 nM.
